Test results reported in PubChem BioAssay AID256 (DTP/NCI, 2004).
Several values for one entry are separate records, joined by “and”; a condition that tells them apart may be missing. Identical values can stand only once. Toxic doses and inconclusive results are not listed. Rule for the calls: active = survival T/C of 150% or more; inactive = T/C below 125% in these data.

System: CD2F1 mice, L1210 leukemia ip, survival T/C
Test: NCI In Vivo Anticancer Drug Screen. Data for tumor model L1210 Leukemia (intraperitoneal) in CD2F1 (CDF1) mice
Details: higher = longer survival
Summary of the method: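 Tumor-bearing mice (transplanted tumor) were split into treated and vehicle control groups, and the measured endpoint of each treated group was divided by that of its vehicle controls.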

[1] = endpoint: mean survival time, dose: 25.0 mg/kg/injection, schedule: Q01DX009 (ip), vehicle: water
[2] = endpoint: mean survival time, dose: 50.0 mg/kg/injection, schedule: Q01DX009 (ip), vehicle: water
[3] = endpoint: mean survival time, dose: 100.0 mg/kg/injection, schedule: Q01DX009 (ip), vehicle: water
[4] = endpoint: mean survival time, dose: 200.0 mg/kg/injection, schedule: Q01DX009 (ip), vehicle: water
[5] = endpoint: mean survival time, dose: 100.0 mg/kg/injection, schedule: Q01DX001 (ip), vehicle: saline
[6] = endpoint: mean survival time, dose: 200.0 mg/kg/injection, schedule: Q01DX001 (ip), vehicle: saline
[7] = endpoint: mean survival time, dose: 25.0 mg/kg/injection, schedule: Q01DX009 (ip), vehicle: saline with Tween-80
[8] = endpoint: mean survival time, dose: 50.0 mg/kg/injection, schedule: Q01DX009 (ip), vehicle: saline with Tween-80
[9] = endpoint: mean survival time, dose: 100.0 mg/kg/injection, schedule: Q01DX009 (ip), vehicle: saline with Tween-80
[10] = endpoint: mean survival time, dose: 100.0 mg/kg/injection, schedule: Q04DX003 (ip), vehicle: saline with Tween-80
[11] = endpoint: mean survival time, dose: 75.0 mg/kg/injection, schedule: Q01DX001 (ip), vehicle: saline
[12] = endpoint: mean survival time, dose: 200.0 mg/kg/injection, schedule: Q01DX009 (ip), vehicle: saline with Tween-80
[13] = endpoint: mean survival time, dose: 100.0 mg/kg/injection, schedule: Q04DX002 (ip), vehicle: saline with Tween-80
[14] = endpoint: mean survival time, dose: 200.0 mg/kg/injection, schedule: Q04DX002 (ip), vehicle: saline with Tween-80
[15] = endpoint: mean survival time, dose: 400.0 mg/kg/injection, schedule: Q04DX002 (ip), vehicle: saline with Tween-80
[16] = endpoint: mean survival time, dose: 400.0 mg/kg/injection, schedule: Q04DX003 (ip), vehicle: saline with Tween-80
[17] = endpoint: mean survival time, dose: 200.0 mg/kg/injection, schedule: Q04DX003 (ip), vehicle: saline with Tween-80

Measured: T/C

COc1cc(C(=O)c2c(OC)cccc2C(=O)O)c(OC)cc1C
inactive: endpoint: mean survival time, dose: 12.5 mg/kg/injection, schedule: Q01DX009 (ip), vehicle: water 100 % of control | [1] 100 % of control | [2] 95 % of control | [3] 95 % of control | [4] 97 % of control

C=C(C)C1CCC2(C(=O)OC)CCC3(C)C(CCC4C5(C)CCC(=O)C(C)(C)C5CCC43C)C12 (centres undefined)
inactive: endpoint: mean survival time, dose: 100.0 mg/kg/injection, schedule: Q01DX001 (ip), vehicle: Klucel (hydroxypropylcellulose) (HPC) 96 % of control | endpoint: mean survival time, dose: 200.0 mg/kg/injection, schedule: Q01DX001 (ip), vehicle: Klucel (hydroxypropylcellulose) (HPC) 91 % of control | endpoint: mean survival time, dose: 400.0 mg/kg/injection, schedule: Q01DX001 (ip), vehicle: Klucel (hydroxypropylcellulose) (HPC) 94 % of control

Nn1cnnc1
inactive: [5] 98 % of control | [6] 93 % of control

O=S(=O)(SC(Cl)(Cl)Cl)c1ccc(Cl)cc1
inactive: endpoint: mean survival time, dose: 12.5 mg/kg/injection, schedule: Q01DX009 (ip), vehicle: saline sonified 103 % of control | endpoint: mean survival time, dose: 25.0 mg/kg/injection, schedule: Q01DX009 (ip), vehicle: saline sonified 102 % of control | [7] 103 % of control | endpoint: mean survival time, dose: 50.0 mg/kg/injection, schedule: Q01DX009 (ip), vehicle: saline sonified 102 % of control | [8] 98 % of control | endpoint: mean survival time, dose: 100.0 mg/kg/injection, schedule: Q01DX001 (ip), vehicle: saline with Tween-80 91 % of control | [9] 98 % of control

COc1ccc(C(=O)NN)cc1
inactive: [7] 115 % of control | [8] 110 % of control | [9] 109 % of control | [10] 101 % of control

Cc1cc(C)[nH]c(=O)c1
inactive: endpoint: mean survival time, dose: 100.0 mg/kg/injection, schedule: Q01DX009 (ip), vehicle: saline 106 % of control | endpoint: mean survival time, dose: 200.0 mg/kg/injection, schedule: Q01DX009 (ip), vehicle: saline 106 % of control | endpoint: mean survival time, dose: 400.0 mg/kg/injection, schedule: Q01DX009 (ip), vehicle: saline 106 % of control

CCC/C=C(\C#N)C(=O)OC
inactive: [11] 97 % of control

O=C(CNC(=O)Nc1cccc(C(F)(F)F)c1)N/N=C/c1c(O)ccc2ccccc12
inactive: endpoint: mean survival time, dose: 12.5 mg/kg/injection, schedule: Q01DX009 (ip), vehicle: saline with Tween-80 94 % of control | [7] 94 % of control | [8] 94 % of control and 96 % of control | [9] 100 % of control | [12] 100 % of control

CC1CN1P(=O)(N1CC1C)N1CC1C.CC1CN1P(=O)(N1CC1C)N1CC1C.CC1CN1P(=O)(N1CC1C)N1CC1C.CC1CN1P(=O)(N1CC1C)N1CC1C.CC1CN1P(=O)(N1CC1C)N1CC1C.CC1CN1P(=O)(N1CC1C)N1CC1C.[Fe+3].[O-][Cl+3]([O-])([O-])O (centres undefined)
inactive: [13] 98 % of control | [14] 98 % of control | [15] 115 % of control

CC(CCC(C)(C)O)C1CCC2C3C(O)CC4CCCCC4(C)C3CC(O)C12C (centres undefined)
inactive: [16] 88 % of control

CCOC(=O)c1ccc(NN=NCCF)cc1
inactive: endpoint: median survival time, dose: 3.12 mg/kg/injection, schedule: Q01DX009 (ip), vehicle: distilled water + Tween-80 114 % of control and 96 % of control | endpoint: median survival time, dose: 3.13 mg/kg/injection, schedule: Q01DX009 (ip), vehicle: distilled water + Tween-80 104 % of control | endpoint: median survival time, dose: 6.25 mg/kg/injection, schedule: Q01DX009 (ip), vehicle: distilled water + Tween-80 122 % of control and 98 % of control (2×) | endpoint: median survival time, dose: 12.5 mg/kg/injection, schedule: Q01DX009 (ip), vehicle: distilled water + Tween-80 92 % of control and 96 % of control | endpoint: median survival time, dose: 50.0 mg/kg/injection, schedule: Q01DX009 (ip), vehicle: distilled water + Tween-80 94 % of control

CCCCCC(O)CCCC (centres undefined)
inactive: [8] 91 % of control | [9] 100 % of control | [12] 106 % of control

COc1cc2ccc(/C=N/NC(N)=S)cc2cc1OC
inactive: [1] 94 % of control | [2] 98 % of control | [3] 102 % of control | [4] 93 % of control

C1CCCCCC2=C(CCCC1)CCCO2
inactive: endpoint: mean survival time, dose: 6.25 mg/kg/injection, schedule: Q04DX003 (ip), vehicle: saline with Tween-80 91 % of control | endpoint: mean survival time, dose: 12.5 mg/kg/injection, schedule: Q04DX003 (ip), vehicle: saline with Tween-80 91 % of control | endpoint: mean survival time, dose: 25.0 mg/kg/injection, schedule: Q04DX003 (ip), vehicle: saline with Tween-80 86 % of control | endpoint: mean survival time, dose: 50.0 mg/kg/injection, schedule: Q04DX003 (ip), vehicle: saline with Tween-80 89 % of control | [10] 94 % of control | [17] 94 % of control

C=CCSc1cccc(C)c1
inactive: [5] 96 % of control | [6] 97 % of control

C/C(=N/NC(N)=S)c1ccc(NC(=O)C(Cl)Cl)cc1
inactive: [11] 100 % of control | endpoint: mean survival time, dose: 150.0 mg/kg/injection, schedule: Q01DX001 (ip), vehicle: saline 96 % of control

COC(=O)/C(=C\c1ccccc1Cl)C(C)=O
inactive: [10] 104 % of control | [17] 98 % of control | [16] 102 % of control

COc1ccc(NC(=O)Nc2ccccc2OC)c(Cl)c1
inactive: [13] 94 % of control | [14] 87 % of control | [15] 97 % of control

CN(C)C=Nc1cnc2ccccc2c1
inactive: [10] 95 % of control | [17] 95 % of control | [16] 96 % of control

c1ccc2c(c1)[nH]c1c2cc[n+]2cc3c(cc12)CCCC3
inactive: endpoint: mean survival time, dose: 5.0 mg/kg/injection, schedule: Q01DX001 (ip), vehicle: saline 100 % of control | endpoint: mean survival time, dose: 10.0 mg/kg/injection, schedule: Q01DX001 (ip), vehicle: saline 101 % of control | endpoint: mean survival time, dose: 20.0 mg/kg/injection, schedule: Q01DX001 (ip), vehicle: saline 106 % of control | endpoint: mean survival time, dose: 40.0 mg/kg/injection, schedule: Q01DX001 (ip), vehicle: saline 109 % of control

Cc1cc(C(C)(C)C)c(Oc2ccc([N+](=O)[O-])cc2S(=O)(=O)O)c(C(C)(C)C)c1
inactive: [10] 102 % of control | [17] 101 % of control | [16] 92 % of control

CCCCN(N=O)C(=O)Nc1ccc(C2CC(=O)N(C)C2=O)cc1 (centres undefined)
inactive: endpoint: mean survival time, dose: 12.5 mg/kg/injection, schedule: Q01DX001 (ip), vehicle: distilled water + Tween-80 103 % of control | endpoint: mean survival time, dose: 25.0 mg/kg/injection, schedule: Q01DX001 (ip), vehicle: distilled water + Tween-80 99 % of control | endpoint: mean survival time, dose: 50.0 mg/kg/injection, schedule: Q01DX001 (ip), vehicle: distilled water + Tween-80 112 % of control | endpoint: mean survival time, dose: 100.0 mg/kg/injection, schedule: Q01DX001 (ip), vehicle: distilled water + Tween-80 112 % of control | endpoint: mean survival time, dose: 200.0 mg/kg/injection, schedule: Q01DX001 (ip), vehicle: distilled water + Tween-80 120 % of control

Nn1cnc2ccccc2c1=O
inactive: [5] 101 % of control | [6] 102 % of control | endpoint: mean survival time, dose: 400.0 mg/kg/injection, schedule: Q01DX001 (ip), vehicle: saline 102 % of control

C1CC[N-]CC1.C1CC[N-]CC1.CC(=O)CC(C)=O.CC(=O)CC(C)=O.[Ni+2]
inactive: endpoint: mean survival time, dose: 10.0 mg/kg/injection, schedule: Q04DX003 (ip), vehicle: saline 94 % of control | endpoint: mean survival time, dose: 20.0 mg/kg/injection, schedule: Q04DX003 (ip), vehicle: saline 96 % of control | endpoint: mean survival time, dose: 40.0 mg/kg/injection, schedule: Q04DX003 (ip), vehicle: saline 104 % of control

CN(C)C(C)(C)CC(C)(C)C
inactive: [10] 96 % of control

NC(=O)C(O)(c1ccc(Br)cc1)C(Cl)Cl (centres undefined)
inactive: endpoint: mean survival time, dose: 28.5 mg/kg/injection, schedule: Q04DX002 (ip), vehicle: saline with Tween-80 97 % of control | endpoint: mean survival time, dose: 50.0 mg/kg/injection, schedule: Q04DX002 (ip), vehicle: saline with Tween-80 107 % of control | endpoint: mean survival time, dose: 57.0 mg/kg/injection, schedule: Q04DX002 (ip), vehicle: saline with Tween-80 95 % of control | [13] 102 % of control | endpoint: mean survival time, dose: 114.0 mg/kg/injection, schedule: Q04DX002 (ip), vehicle: saline with Tween-80 98 % of control

CCNC(=O)[B-][N+](C)(C)C
inactive: endpoint: median survival time, dose: 12.5 mg/kg/injection, schedule: Q01DX009 (ip), vehicle: Klucel (hydroxypropylcellulose) (HPC) 108 % of control | endpoint: median survival time, dose: 25.0 mg/kg/injection, schedule: Q01DX009 (ip), vehicle: Klucel (hydroxypropylcellulose) (HPC) 106 % of control | endpoint: median survival time, dose: 50.0 mg/kg/injection, schedule: Q01DX009 (ip), vehicle: Klucel (hydroxypropylcellulose) (HPC) 106 % of control | endpoint: median survival time, dose: 100.0 mg/kg/injection, schedule: Q01DX009 (ip), vehicle: Klucel (hydroxypropylcellulose) (HPC) 107 % of control | endpoint: median survival time, dose: 200.0 mg/kg/injection, schedule: Q01DX009 (ip), vehicle: Klucel (hydroxypropylcellulose) (HPC) 106 % of control
